Source: patent US12588678B2, “Oxazoline compound, synthesis method therefor and application thereof” (NANKAI UNIVERSITY, priority 2019, dated 2026)
Where “and” joins values, the source holds several entries; their conditions need not be identical. Identical values can stand only once.

Assays:
[1] = test system: Tetranychus cinnabarinus mite larvae; assay: Larvicidal activity test, dipping method on bean seedling leaves; type: in vivo; settings: for mortality at 1 µg/mL / mortality at 10 µg/mL / mortality at 100 µg/mL / mortality at 200 µg/mL / mortality at 0.1 µg/mL / mortality at 0.01 µg/mL / mortality at 0.05 µg/mL / mortality at 0.5 µg/mL: Tetranychus cinnabarinus, 96 h; for mortality at 1 µg/mL: read-out: mortality of mite larvae (%), 1 mg/L; for mortality at 10 µg/mL: read-out: mortality of mite larvae (%), 10 mg/L; for mortality at 100 µg/mL: read-out: mortality of mite larvae (%), 100 mg/L; for mortality at 200 µg/mL: read-out: mortality of mite larvae (%), 200 mg/L; for mortality at 0.1 µg/mL: read-out: mortality of mite larvae (%), 0.1 mg/L; for mortality at 0.01 µg/mL: read-out: mortality of mite larvae (%), 0.01 mg/L; for mortality at 0.05 µg/mL: read-out: mortality of mite larvae (%), 0.05 mg/L; for mortality at 0.5 µg/mL: read-out: mortality of mite larvae (%), 0.5 mg/L
Procedure, shortened: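 Leaves bearing mite larvae, hatched from eggs laid over 24 h and grown 5 days at 25° C (≥60 mites per leaf), were dipped 5–6 s in compound solution with Tween. Mortality was scored after 4 days of culture against an additive-only blank. Three replicates per compound.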

[2] = test system: Tetranychus cinnabarinus mite eggs; assay: Activity against mite eggs, dipping method on bean seedling leaves; type: in vivo; settings: for mortality at 1 µg/mL: read-out: mortality of mite eggs (%), 1 mg/L; for mortality at 10 µg/mL: read-out: mortality of mite eggs (%), 10 mg/L; for mortality at 100 µg/mL: read-out: mortality of mite eggs (%), 100 mg/L; for mortality at 200 µg/mL: read-out: mortality of mite eggs (%), 200 mg/L; for mortality at 0.5 µg/mL: read-out: mortality of mite eggs (%), 0.5 mg/L
Procedure, shortened: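 Female T. cinnabarinus laid eggs on bean seedling leaves for 24 h at 25° C., adults removed; after 1 day, egg-bearing leaves dipped 5-6 s in test solution. Mortality of eggs scored after 4 further days of greenhouse culture, versus additive-only blank; three replicates per compound.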

[3] = Tetranychus cinnabarinus, 96 h, checked after 4 days

Structure (SMILES)	mortality at 1 µg/mL ([1]; checked after 4 days)	mortality at 10 µg/mL ([1]; checked after 4 days)	mortality at 100 µg/mL ([1]; checked after 4 days)	mortality at 200 µg/mL ([1]; checked after 4 days)	mortality at 1 µg/mL [2, 3]	mortality at 10 µg/mL [2, 3]	mortality at 100 µg/mL [2, 3]	mortality at 200 µg/mL [2, 3]	mortality at 0.1 µg/mL ([1]; checked after 4 days)	other results
O=S(=O)(Oc1ccc(C2COC(c3c(F)cccc3F)=N2)cc1)c1ccc(I)cc1 (stereo not shown) [Compound R3-10]	65%	88%	100%	100%	60%	85%	100%	100%	–	–
O=S(=O)(Oc1ccc(C2COC(c3c(F)cccc3F)=N2)cc1)c1ccccc1F (stereo not shown) [Compound R3-11]	80%	90%	100%	100%	50%	80%	95%	100%	50%	–
O=S(=O)(Oc1ccc(C2COC(c3c(F)cccc3F)=N2)cc1)c1cccc(F)c1 (stereo not shown) [Compound R3-12]	50%	90%	100%	100%	55%	90%	100%	100%	–	–
O=S(=O)(Oc1ccc(C2COC(c3c(F)cccc3F)=N2)cc1)c1ccc(C(F)(F)F)cc1 (stereo not shown) [Compound R3-13]	80%	95%	100%	100%	70%	90%	100%	100%	60%	–
O=S(=O)(Oc1ccc(C2COC(c3c(F)cccc3F)=N2)cc1)c1ccc(F)cc1F (stereo not shown) [Compound R3-14]	80%	95%	100%	100%	50%	85%	90%	100%	60%	–
O=S(=O)(Oc1ccc(C2COC(c3c(F)cccc3F)=N2)cc1)c1ccc(F)c(F)c1F (stereo not shown) [Compound R3-15]	90%	100%	100%	100%	65%	95%	100%	100%	65%	–
Cc1ccc(S(=O)(=O)Oc2ccc(C3COC(c4c(F)cccc4F)=N3)cc2)cc1 (stereo not shown) [Compound R3-16]	70%	85%	100%	100%	50%	70%	92%	100%	–	–
CC(C)(C)c1ccc(S(=O)(=O)Oc2ccc(C3COC(c4c(F)cccc4F)=N3)cc2)cc1 (stereo not shown) [Compound R3-17]	95%	100%	100%	100%	90%	96%	100%	100%	85%	acaricidal activity compared with etoxazole ([1]; Tetranychus cinnabarinus eggs and larvae, etoxazole as reference): equivalent or better acaricidal activity compared with etoxazole; mortality at 0.01 µg/mL ([1]; checked after 4 days): 35%; mortality at 0.05 µg/mL ([1]; checked after 4 days): 50%; mortality at 0.5 µg/mL ([1]; checked after 4 days): 90%; mortality at 0.1 µg/mL ([2]; Tetranychus cinnabarinus, 96 h, read-out: mortality of mite eggs (%), 0.1 mg/L, checked after 4 days): 45%; mortality at 0.5 µg/mL [2, 3]: 78%
O=S(=O)(Oc1ccc(C2COC(c3c(F)cccc3F)=N2)cc1)c1ccc2c(c1)OCCO2 (stereo not shown) [Compound R3-18]	50%	70%	90%	100%	–	50%	70%	100%	–	–
O=S(=O)(Oc1ccc(C2COC(c3c(F)cccc3F)=N2)cc1)c1cccc2ccccc12 (stereo not shown) [Compound R3-20]	55%	80%	90%	100%	30%	70%	80%	100%	–	–
O=S(=O)(Oc1ccc(C2COC(c3c(F)cccc3F)=N2)cc1)c1ccc2ccccc2c1 (stereo not shown) [Compound R3-21]	95%	100%	100%	100%	65%	90%	95%	100%	65%	–
N#Cc1ccc(S(=O)(=O)Oc2ccc(C3COC(c4c(F)cccc4F)=N3)cc2)cc1 (stereo not shown) [Compound R3-22]	40%	70%	95%	100%	45%	70%	90%	100%	–	–
CCOc1cc(C(C)(C)C)ccc1C1COC(c2c(F)cccc2F)=N1 (stereo not shown) [Etoxazole, reference compound]	80%	90%	100%	100%	70%	90%	100%	100%	65%	mortality of mite larvae (%) ([1]; 10 mg/L, checked after 4 days): 100%; mortality at 0.01 µg/mL ([1]; checked after 4 days): 30%; mortality at 0.05 µg/mL ([1]; checked after 4 days): 30%; mortality at 0.5 µg/mL ([1]; checked after 4 days): 80%; mortality of mite eggs (%) ([2]; 0.1 mg/L, checked after 4 days): 60%; mortality of mite eggs (%) ([2]; 0.5 mg/L, checked after 4 days): 60%; mortality of mite eggs (%) ([2]; 10 mg/L, checked after 4 days): 100% and 95%; LC50 ([2]; Tetranychus cinnabarinus, 96 h, read-out: LC50 (against mite eggs), mite eggs, from regression y = ax + b): 0.128 µg/mL; mortality at 0.01 µg/mL ([2]; Tetranychus cinnabarinus, 96 h, read-out: mortality of mite eggs (%), 0.01 mg/L, checked after 4 days): 30%; mortality at 0.05 µg/mL ([2]; Tetranychus cinnabarinus, 96 h, read-out: mortality of mite eggs (%), 0.05 mg/L, checked after 4 days): 30%; mortality at 0.5 µg/mL [2, 3]: 80%
